Results published in patent publication US20230256059A1, “COMPOSITIONS FOR TREATING RESPIRATORY TRACT INFECTION AND USES THEREOF” (Lateral IP Pty Ltd, priority 2020, published 2023).
Like-named read-outs stand apart in the source and are kept apart here. Bridge positions count the residues as written; N and C are the ends. Peptide text beside a SMILES is read from it.

How the values were obtained:
HKx31 (H3N2) IAV [1] = assay: Assessment of lung oedema and vascular leakage; set-up: species or system C57BL/6 mice; details: mouse, in vivo
SARS-CoV-2 = SARS-CoV-2 infection of Vero cells, cytopathic effect inhibition assay; type: cell-based
HKx31 (H3N2) IAV [2] = assay: Titres of infectious virus in lung homogenates by standard plaque assay on MDCK cells; type: in vivo, C57BL/6 mice; details: day 4 post-infection; for reduction in levels of infectious virus in lung tissues: daily therapeutic 20 mg/kg intranasal from day 1
Description: (§1) For virus infection studies, groups of 8 male C57BL/6 mice were randomized. […] Bronchoalveolar lavage (BAL) fluid was immediately obtained following euthanisation by flushing the lungs three times with 1 mL of PBS. Lungs were then removed and frozen immediately in liquid nitrogen. Titres of infectious virus in lung homogenates were determined by standard plaque assay on MDCK cells.

HKx31 = HKx31 infection of human PBECs, infectious virus in cell supernatants; type: cell-based; details: 24 hours following HKx31 infection
BAL cells = type: in vivo, C57BL/6 mice; details: day 4 post-infection
[3] = 20 mg/kg intranasal every 48 h
[4] = tested on: IL-6, MCP-1/CCL2, IFNγ, IL-10, IL-12p70, TNFα, IFNα, IFNβ, IFN λ2/3; assay: Quantification of cytokines in mouse BAL fluid and sera (CBA, ELISA); type: in vivo, C57BL/6 mice; details: day 4 post-infection
Description: as §1
To detect cytokines, BAL fluid was collected and stored at −80° C. Levels of IL-6, MCP-1/CCL2, IFNγ, IL-10, IL-12p70, and TNFα proteins were determined by cytokine bead array (CBA) using the mouse inflammation kit (Becton Dickinson). Levels of mouse IFNα were determined by sandwich ELISA using mouse monoclonal clone F18 (Thermo Scientific) and rabbit polyclonal antibodies (PBL) (Thomas et al., 2014). Levels of mouse IFNβ were determined by sandwich ELISA using mouse monoclonal clone 7F-D3 (Abcam) and rabbit polyclonal antibodies (PBL) (Thomas et al., 2014). Mouse IFN λ2/3 was quantified by ELISA (R&D Systems).

[5] = tested on: respiratory tract infection by a virus; assay: Case studies: oral AOD9604 in subjects with flu-like symptoms; type: in vivo, human
From the text: The subject is a person who presented with flu-like symptoms. The subject reported to have been free of flu-like symptoms over the past 8 years.
The subject developed a very sore throat. On awakening the next day, the sore throat was more severe and their nose was running (rhinorrhea) and becoming worse throughout the day. Other symptoms that developed during the day included: • a persistent deep phlegmy cough; • high temperature; • body sweats; • chills; • muscle soreness; and • fatigue.
Later that evening, the subject developed a loss of appetite, and an exacerbation of chills, body sweats, rhinorrhoea and persistent coughing. At around 8 pm that evening, the subject was administered ˜1 mg AOD9604 (SEQ ID NO:2), orally.
The subject is a person who in the afternoon presented with the flu, with symptoms including a persistent deep phlegmy cough, high temperature, body sweats, chills, muscle soreness and fatigue. The subject was administered ˜1 mg AOD9604 (SEQ ID NO:2), orally. The subject recalls sleeping well that evening.

HKx31 (H3N2) IAV [6] = tested on: HKx31 (H3N2) IAV; set-up: species or system C57BL/6 mice; details: mouse, in vivo; for IAV-associated lethality: 5 mg/kg
[7] = cited from earlier work
[8] = daily therapeutic 20 mg/kg intranasal from day 1
[9] = prophylactic 20 mg/kg intranasal, every 48 h

**Q.** What does the source list for `CC[C@H](C)[C@H](NC(=O)[C@H](CCCNC(=N)N)NC(=O)[C@H](CC(C)C)NC(=O)[C@@H](N)Cc1ccc(O)cc1)C(=O)N[C@H](C(=O)N[C@@H](CCC(N)=O)C(=O)N[C@H]1CSSC[C@@H](C(=O)NCC(=O)N[C@@H](Cc2ccccc2)C(=O)O)NC(=O)[C@H](CO)NC(=O)CNC(=O)[C@H](CCC(=O)O)NC(=O)[C@H](C(C)C)NC(=O)[C@H](CO)NC(=O)[C@H](CCCNC(=N)N)NC1=O)C(C)C` [LAT8881, H-YLRIVQCRSVEGSCGF-OH] (H-YLRIVQCRSVEGSCGF-OH; disulfide 7-14)?
**A.** BAL fluid protein concentrations (vascular leakage) (HKx31 (H3N2) IAV [1]): significantly reduced; lung wet-to-dry ratios (HKx31 (H3N2) IAV [1]): no significant differences; SARS-CoV-2 infection of Vero cells (cytopathic effect inhibition) (SARS-CoV-2): did not alter SARS-CoV-2 infection of Vero cells; reduction in levels of infectious virus in lung tissues (HKx31 (H3N2) IAV [2]): 1.5 fold; reduction in infectious viral loads in the lung (HKx31 (H3N2) IAV [2]; prophylactic: 20 mg/kg intranasal 24 h prior to infection, then every 48 h): 1.6 fold; levels of infectious virus in cell supernatants (HKx31): no significant impact; inflammatory Ly6C+ macrophages in the airways (BAL cells; [8]): significantly fewer; neutrophils in BAL (BAL cells; [8]): significantly fewer; total BAL cellularity (BAL cells; [8]): significantly reduced; total numbers of dendritic cells (BAL cells; [8]): comparable to PBS-treated infected controls; dendritic cells in the airways (BAL cells; [9]): no significant numerical difference; inflammatory Ly6C+ macrophages in the airways (BAL cells; [9]): no significant numerical difference; leukocyte cell death (Annexin V and PI staining of BAL cells) (BAL cells; [9]): no significant differences; macrophages in BAL (BAL cells; [9]): significantly fewer; neutrophils in BAL (BAL cells; [9]): significantly fewer; total BAL cellularity (BAL cells; [9]): significantly reduced; weight loss or clinical signs of disease in uninfected mice [3]: did not result in weight loss or any clinical signs of disease; IL-6 in the BAL fluid [4, 8]: significantly reduced; TNFα levels in BAL fluid [4, 8]: less profound reduction; concentration of IFN λ2/3 in BAL fluid [4, 8]: not significantly different; concentration of IFNα in BAL fluid [4, 8]: not significantly different; concentration of IFNβ in BAL fluid [4, 8]: not significantly different; concentration of IL-10 in BAL fluid [4, 8]: not significantly different; concentration of IL-12p70 in BAL fluid [4, 8]: not significantly different; levels of CCL2 in BAL fluid [4, 8]: limited levels of CCL2; reduction of IFNγ in BAL fluid [4, 8]: 2 fold; reduction of IL-6 in the serum [4, 8]: approximately 1.6 fold; concentration of CCL2 in BAL fluid [4, 9]: comparable with PBS-treated IAV infected controls; concentration of IL-6 in BAL fluid [4, 9]: comparable with PBS-treated IAV infected controls; concentration of IL-10 in BAL fluid [4, 9]: comparable with PBS-treated IAV infected controls; concentration of IL-12p70 in BAL fluid [4, 9]: comparable with PBS-treated IAV infected controls; concentration of TNFα in BAL fluid [4, 9]: comparable with PBS-treated IAV infected controls; levels of IFN λ2/3 [4, 9]: no significant differences; levels of IFNα [4, 9]: no significant differences; levels of IFNβ [4, 9]: no significant differences; reduction of IFNγ in BAL fluid [4, 9]: 2 fold; reduction of IL-6 in the serum [4, 9]: 1.5 fold; remaining symptoms on waking about 7 hours later ([5]; Case study 1: ~1 mg orally): the only remaining symptoms were a runny nose and a slight cough; symptoms of the flu by the morning ([5]; Case study 2: ~1 mg orally): all symptoms of the flu had disappeared except for a slight runny nose and a dry cough; time until reported symptom-free ([5]; Case study 2: ~1 mg orally, after the morning following dosing): around 24 hours; alleviation of symptoms of respiratory tract infection (conclusion of case studies) ([5]; ~1 mg orally, two case studies): capable of alleviating the symptoms of respiratory tract infection by a virus; clinical signs of disease (weight loss, limited mobility, laboured breathing) (HKx31 (H3N2) IAV [6]): reduced clinical signs of disease including weight loss; delay of IAV-associated lethality (HKx31 (H3N2) IAV [6]): 48 to 72 h; onset of clinical signs of severe disease (weight loss, limited mobility, laboured breathing) (HKx31 (H3N2) IAV [6]): delayed the onset of clinical signs of severe disease; survival of mice (from 0% in PBS controls) (HKx31 (H3N2) IAV [6]): approximately 30%; IAV-associated lethality (HKx31 (H3N2) IAV [6]): delayed IAV-associated lethality

**Q.** Which lung wet-to-dry ratios (HKx31 (H3N2) IAV [1]) does the source give for “H-CRSVEGSCGF-OH (cysteine pairing not given here; listed as Homo sapiens) [LAT9991F]” here?
**A.** no significant differences

**Q.** And the “reduction in levels of infectious virus in lung tissues” value (HKx31 (H3N2) IAV [2])?
**A.** 2.4 fold

**Q.** What about the “inflammatory Ly6C+ macrophages in the airways” value (BAL cells; [8]) of the same compound?
**A.** significantly fewer

**Q.** What about the “neutrophils in BAL” value (BAL cells; [8]) of the same compound?
**A.** significantly fewer

**Q.** And the “numbers of macrophages in BAL” value (BAL cells; [8])?
**A.** reduced numbers of macrophages

**Q.** What about the “total BAL cellularity” value (BAL cells; [8]) of the same compound?
**A.** significantly reduced

**Q.** What about the “total numbers of dendritic cells” value (BAL cells; [8]) of the same compound?
**A.** comparable to PBS-treated infected controls

**Q.** And the “stability as metabolite in human serum” value [7]?
**A.** known stable metabolite of LAT8881 in human serum

**Q.** And the “TNFα levels in BAL fluid” value [4, 8]?
**A.** less profound reduction

**Q.** And the “concentration of IFN λ2/3 in BAL fluid” value [4, 8]?
**A.** not significantly different

**Q.** And the “concentration of IFNα in BAL fluid” value [4, 8]?
**A.** not significantly different

**Q.** What about the “concentration of IFNβ in BAL fluid” value [4, 8] of the same compound?
**A.** not significantly different

**Q.** What about the “concentration of IL-10 in BAL fluid” value [4, 8] of the same compound?
**A.** not significantly different

**Q.** What about the “concentration of IL-12p70 in BAL fluid” value [4, 8] of the same compound?
**A.** not significantly different

**Q.** What about the “reduction of IFNγ in BAL fluid” value [4, 8] of the same compound?
**A.** 2.3 fold

**Q.** What about the “reduction of IL-6 in the serum” value [4, 8] of the same compound?
**A.** approximately 1.6 fold

**Q.** What about the IAV-associated lethality (HKx31 (H3N2) IAV [6]) of the same compound?
**A.** delayed IAV-associated lethality
